The values below come from patent US10058100B2, “Hydrogen sulfide releasing compounds and their use” (THE UNIVERSITY OF EXETER, priority 2011, dated 2018).

Data set [1] has as its system peroxiredoxin 3 (Prx3). The data set is described as follows: Western blot of mitochondrial peroxiredoxin 3 oxidation in THP-1 cells. Type of data set: cell-based, human. How it is done: Human THP-1 (monocytic) cells were exposed to an oxidative stress inducing agent (hydrogen peroxide; H2O2, 25 μM) in the presence or absence of the mitochondria-targeted H2S donor AP39.
In the experiment resulting in FIG. 32, the human THP-1 (monocytic) cells were exposed to 25 μM H2O2 for 4 hours in the absence or presence of different concentrations of AP39 (given in μM).
In the experiment resulting in FIG. 33, the human THP-1 (monocytic) cells were exposed to different concentrations of AP39 (given in μM) for 4 hours followed by the addition of 25 μM H2O2 for 1 minute.
In both experiments, after these time periods the levels of native mitochondrial matrix protein peroxiredoxin 3 (Prx3) (dimer, molecular weight 37 kDa) and over-oxidised Prx3 (monomer, molecular weight 25 kDa) were determined by standard western blotting procedures (M Whiteman et al (FASEB J, 2004, 18, 1395-1397) (FIGS. 32 and 33).
On the technique in general: In western blotting, separated proteins are transferred to a membrane and probed.

The subject of data set [2] is adrenaline-precontracted rat aorta. The data set is described as follows: Relaxation of adrenaline precontracted rat aortic rings. As to conditions: AP39 1-5 μM, 200 nmol/l adrenaline, FIG. 23 A-C. Here is the method: (§1) The rings of thoracic aorta (approx. 3-4-mm diameter) or mesenteric artery were prepared from male Wistar rats and were mounted for recording of isometric tension changes in pneumoxid-oxygenated (95% O2:CO2, 37° C.) Krebs-bicarbonate solution as described in Ling et al., 2008 Circulation 117 […]. The aortic ring was pre-contracted with 200 nmol/l adrenaline and the effect of AP39 was evaluated (FIG. 23).

Data set [3] has as its system mesenteric arteries. The data set is described as follows: Relaxation of adrenaline precontracted rat mesenteric arteries. As to conditions: AP39 1-5 μM, FIG. 23 D. How it is done:
as §1

Data set [4] deals with HMEC. The data set is described as follows: Cell death induced by inhibitors of endogenous H2S synthesis (AOAA, PAG). As to conditions: AP39 100 nM, FIGS. 5-7, p<0.001. It counts as cell-based, human. From the text:
In the data shown in FIGS. 5 to 7, ###=p<0.001 compared to the control; ***=p<0.001 compared to inhibitors.

The subject of data set [5] is Human brain microvascular endothelial cells (HMEC). The data set is described as follows: Prevention of cell death induced by oxidants (SIN-1, H2O2, 4-HNE), Alamar Blue. It counts as cell-based. (In general: The colour change of resazurin is a common sign of viable cells or microbes.)
Data set [6] concerns inflammasome. The data set is described as follows: Inhibition of inflammasome activity once inflammasome is activated, IL-1β ELISA in THP-1 cells. The following applies: LPS 24 hrs, then ATP and AP39 24 hrs, FIG. 36. Type of data set: cell-based, human. How it is done:
Human THP-1 cells were cultured in RPMI medium and exposed to bacterial endotoxin (lipopolysaccharide; LPS) (1 μg/ml) for 24 hrs, followed by ATP (5 mM) and AP39 for 24 hrs. After this time cell culture media was collected and inflammasome activity determined by measuring IL-1β levels in the culture media by commercial ELISA (Human IL-1 beta ELISA Ready-SET-Go, eBioscience) (FIG. 36). Data are mean+/−standard deviation (n=3).

In data set [7] the test system is anaesthetised Wistar rats. The data set is described as follows: Blood pressure, heart rate and breathing rate of anaesthetised Wistar rats. Type of data set: in vivo, rat. Here is the method:
The mean arterial blood pressure (MAP) of anaesthetised Wistar rats was measured by a pressure transducer in the carotid artery. In ex vivo experiments, effects of AP39 were studied on noradrenaline precontracted rat aortic rings (see below). The single channel properties of intracellular chloride channels from rat heart were studied using the bilayer lipid membrane method (see below).
(§2) The catheter was inserted into the right jugular vein of male wistar rats or male spontaneously hypertensive (SHR) rats so as to reach the right atrium. Anesthesia (ZOLELIT, VIRBAC, 40 mg/kg to leg) and Xylazine 2%. AP39 solutions were prepared in 4 μl DMSO then mixed with 100 μl Krebs solution and immediately applied for 10 sec. (FIGS. 20, 21 and 22).
(§3) Blood pressure, heart rate and breathing rate were all measured at the same time, in accordance with Ling et al., 2008 Circulation 117 2351-2360.

In data set [8] the test system is inflammasome. The data set is described as follows: Inhibition of inflammasome activation (LPS/ATP), IL-1β ELISA in THP-1 cells. It counts as cell-based, human. As to conditions: AP39 with LPS 1 μg/ml 24 hrs, then ATP 5 mM 24 hrs, FIG. 35. How it is done: Human THP-1 cells were cultured in RPMI medium and incubated with AP39 and bacterial endotoxin (lipopolysaccharide; LPS) (1 μg/ml) for 24 hrs, followed by ATP (5 mM) for an additional 24 hrs. After this time cell culture media was collected and inflammasome activation determined by measuring […] levels in the culture media by commercial ELISA (Human IL-1 beta ELISA Ready-SET-Go, eBioscience) (FIG. 35). Data are mean+/−standard deviation (n=3).
For orientation: In an ELISA, binding on a coated surface is turned into a signal by an enzyme label.

The target in data set [9] is T1, CAv3.1 T-type calcium channels (Homo sapiens, UniProt O43497).
T1 construct: expressed in transfected cells; host or cells: HEK 293 cells, permanently transfected
The data set is described as follows: T-type calcium channel CAv3.1 whole cell patch-clamp in HEK 293 cells. Type of data set: cell-based. The following applies: HEK293 cells, concentration and time-dependent, holding potential −100 mV, FIGS. 29-31. How it is done: CAv3.1 calcium channels were permanently transfected in human embryonic kidney (HEK 293) cells and the calcium currents were measured by a patch-clamp method in the whole cell configuration, from a holding potential −100 mV.
The effect of four different concentrations of AP39 on the current through a Cav3.1 channel was tested (FIGS. 29-31).

Data set [10] relates to spontaneously hypertensive (SHR) rats. The data set is described as follows: Blood pressure, heart rate and breathing rate of anaesthetised SHR rats. Type of data set: in vivo, rat. How it is done: as §2, §3
In data set [11] the test system is transcription factor Nrf2. The data set is described as follows: Nrf2 activation, luciferase reporter in AREc32 cells. It counts as cell-based, human. As to conditions: FIG. 34. Here is the method: Nrf2 activation was studied in AREc32 cells. This stable cell line is derived from MCF-7 cells transfected with a construct containing eight copies of the rat glutathione-S-transferase-A2 Antioxidant Response […] Element (ARE) and the SV40 promoter sequence upstream of a firefly luciferase reporter gene (Wang, X. J. et al., 2006, Cancer Res, 66, 10983-94). […] After 4 h the treatments were removed and the cells were treated with sulforaphane (12.5 μM), an Nrf2-activator and positive control, for 24 hrs. Nrf-2 activation (luciferase activity) was then assessed by luminescence with a BMG labtech Omega microplate reader (FIG. 34). Data are expressed as fold induction of luciferase activity normalised to cell biomass (sulforhodamine B).

Setting [12] is: anaesthetised Wistar rats, 1.6 μM/kg and 2.7 μM/kg AP39 injected, FIG. 20.
The mark [13] stands for this setting: anaesthetised Wistar rats, AP39 4 μM/kg, FIG. 22.

T1 sequence (O43497 whole entry): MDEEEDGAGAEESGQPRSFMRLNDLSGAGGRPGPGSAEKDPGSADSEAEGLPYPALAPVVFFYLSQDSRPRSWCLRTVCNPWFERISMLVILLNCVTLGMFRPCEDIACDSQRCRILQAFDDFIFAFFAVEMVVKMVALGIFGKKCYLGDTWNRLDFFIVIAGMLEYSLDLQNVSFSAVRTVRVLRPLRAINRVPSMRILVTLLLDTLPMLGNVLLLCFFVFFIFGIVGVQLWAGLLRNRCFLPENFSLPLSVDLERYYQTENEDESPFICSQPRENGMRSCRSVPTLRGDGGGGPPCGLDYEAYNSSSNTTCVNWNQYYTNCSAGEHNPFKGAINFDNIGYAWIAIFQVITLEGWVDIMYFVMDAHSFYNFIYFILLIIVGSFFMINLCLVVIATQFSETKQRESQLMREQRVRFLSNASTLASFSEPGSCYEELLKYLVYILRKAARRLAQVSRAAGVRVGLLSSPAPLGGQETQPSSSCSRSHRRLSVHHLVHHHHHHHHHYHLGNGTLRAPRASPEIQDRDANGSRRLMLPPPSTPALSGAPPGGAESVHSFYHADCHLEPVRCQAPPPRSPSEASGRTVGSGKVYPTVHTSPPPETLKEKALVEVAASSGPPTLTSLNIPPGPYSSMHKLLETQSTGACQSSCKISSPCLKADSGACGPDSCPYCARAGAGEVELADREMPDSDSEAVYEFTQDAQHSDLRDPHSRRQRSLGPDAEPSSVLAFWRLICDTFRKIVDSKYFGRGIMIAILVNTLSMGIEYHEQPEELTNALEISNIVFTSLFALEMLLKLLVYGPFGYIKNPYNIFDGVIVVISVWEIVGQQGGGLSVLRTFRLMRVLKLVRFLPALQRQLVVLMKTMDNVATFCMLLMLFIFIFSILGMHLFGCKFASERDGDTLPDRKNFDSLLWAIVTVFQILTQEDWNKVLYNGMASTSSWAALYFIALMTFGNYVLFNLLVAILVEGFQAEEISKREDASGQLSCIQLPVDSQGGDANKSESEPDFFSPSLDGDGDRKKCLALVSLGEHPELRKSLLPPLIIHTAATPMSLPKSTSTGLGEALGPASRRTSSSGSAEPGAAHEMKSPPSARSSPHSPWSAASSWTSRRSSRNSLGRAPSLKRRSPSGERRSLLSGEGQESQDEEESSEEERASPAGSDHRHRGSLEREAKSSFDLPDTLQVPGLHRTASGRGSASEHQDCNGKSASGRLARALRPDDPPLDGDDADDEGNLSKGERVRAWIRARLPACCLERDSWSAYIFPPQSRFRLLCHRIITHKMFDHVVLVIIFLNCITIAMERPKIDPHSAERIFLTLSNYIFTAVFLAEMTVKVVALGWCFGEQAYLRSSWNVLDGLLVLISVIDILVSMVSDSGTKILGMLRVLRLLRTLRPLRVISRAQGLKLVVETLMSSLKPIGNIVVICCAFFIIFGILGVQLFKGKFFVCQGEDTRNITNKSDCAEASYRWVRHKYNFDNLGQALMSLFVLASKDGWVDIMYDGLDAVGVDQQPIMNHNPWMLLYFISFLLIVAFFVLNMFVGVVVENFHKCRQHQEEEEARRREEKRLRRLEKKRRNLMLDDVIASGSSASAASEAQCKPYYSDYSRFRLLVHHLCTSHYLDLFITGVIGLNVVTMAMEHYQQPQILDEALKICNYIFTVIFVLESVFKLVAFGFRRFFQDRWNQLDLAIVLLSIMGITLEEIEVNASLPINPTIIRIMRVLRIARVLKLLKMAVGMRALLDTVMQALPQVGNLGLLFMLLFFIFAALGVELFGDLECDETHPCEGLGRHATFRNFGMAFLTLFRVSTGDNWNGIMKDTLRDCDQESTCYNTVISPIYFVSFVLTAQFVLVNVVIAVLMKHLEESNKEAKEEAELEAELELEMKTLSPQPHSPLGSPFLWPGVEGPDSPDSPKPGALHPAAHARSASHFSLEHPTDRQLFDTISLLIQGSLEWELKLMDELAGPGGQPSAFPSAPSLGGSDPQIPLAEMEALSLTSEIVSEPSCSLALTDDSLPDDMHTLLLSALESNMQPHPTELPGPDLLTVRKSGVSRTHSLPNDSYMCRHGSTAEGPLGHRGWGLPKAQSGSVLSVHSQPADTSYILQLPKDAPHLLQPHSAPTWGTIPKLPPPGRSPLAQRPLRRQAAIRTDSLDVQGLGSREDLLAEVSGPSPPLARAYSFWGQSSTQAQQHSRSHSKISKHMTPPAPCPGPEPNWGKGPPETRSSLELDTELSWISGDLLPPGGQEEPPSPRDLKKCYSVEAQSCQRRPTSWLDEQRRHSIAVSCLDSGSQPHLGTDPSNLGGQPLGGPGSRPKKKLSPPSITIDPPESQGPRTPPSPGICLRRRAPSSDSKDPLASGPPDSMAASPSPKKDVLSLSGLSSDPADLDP

For the compound `O=C(CCCCCCCCC[P+](c1ccccc1)(c1ccccc1)c1ccccc1)Oc1ccc(-c2cc(=S)ss2)cc1.[Br-]` [AP39], the “Prx3 oxidation by H2O2” value in [1] (5 μM AP39 for 4 hours then 25 μM H2O2 for 1 minute, FIG. 33) is recorded as “reduced”. In addition, the “levels of the over-oxidised monomeric form of Prx3” value in [1] (25 μM H2O2, increasing concentrations of AP39, FIGS. 32 and 33) was “reduced”. In addition, in data set [2], the “vasodilatory effect on adrenaline-precontracted rat aorta” value was “vasodilatory effects”. Also, the “vasodilatory effect on adrenaline-precontracted mesenteric arteries” value in data set [3] is listed as “vasodilatory effects”. Further, in [4], the “AOAA, PAG and AOAA/PAG induced cell death” value is reported as “significantly inhibited”. For the same compound, in [5], the H2O2-induced cytotoxicity result is listed as “inhibited”; the “SIN-1 and 4-HNE induced cell death” value is “significantly inhibited”; the “cell death induced by 4-HNE” value is “significantly inhibited”; the “cell death induced by SIN-1” value was “significantly inhibited”. In data set [5], the “concentration mediating inhibition of cell death, mitochondrial dysfunction and oxidative stress” value fell in the range of 50 to 200 nM. The “inflammasome activity after activation by LPS/ATP (IL-1β levels)” value in data set [6] is listed as “inhibited”. In data set [7] (setting [12]), the blood pressure entry was “reduced”, the breathing rate result is listed as “transiently increased” and the heart rate entry is on record as “reduced”. Besides, in [7] (setting [13]), the blood pressure entry is “sustained blood pressure (A) and heart rate (B) lowering effects”; the heart rate entry is “sustained blood pressure (A) and heart rate (B) lowering effects”. For the same compound, the “effectiveness relative to Na2S at influencing blood pressure, heart rate and breathing rate” value in [7] (rats, FIGS. 20 to 22) is listed as 10-50 times. For the same compound, the “IL-1β levels in the cell culture media (inflammasome activation)” value in [8] was “reduced”. The “concentration of AP39 inhibiting CAv3.1 T-type calcium channels” value in [9] is reported as more than 300 nM. The blood pressure result in [10] (SHR rats, 1.5 μM/kg AP39 injected, FIG. 21) is given as “Sustained blood pressure lowering effects”. Further, the heart rate entry in [10] (hypertensive (SHR) rats, AP39, summary statement) is “reducing”. In addition, the “Nrf2 transcription factor activation (luciferase activity)” value in data set [11] (AREc32 cells, AP39 6.25 μM pre-treatment 4 h) is “activates”. In addition, the “potency at inducing Nrf2 activation compared with GYY4137” value in [11] (equimolar concentrations (6.25 μM)) was “more potent”.
